According to patent US9340577B2, “HLA binding motifs and peptides and their uses” (priority 1992, dated 2016):
No end group written: not given here.

How the values were obtained:
Assay in all cases: biochemical
DRB1*1302 = DRB1*1302 (Homo sapiens, UniProt P01903+P01911, A100E/A169T/K41T/L162R/M171V/P40S/Q125H/Q178H/Q39Y/Q99D/R42S/S66N/T262R/V115G/W38E/Y61H); assay type: binding
DRB1*1501 = DRB1*1501 (Homo sapiens, UniProt P01903+P01911); assay type: binding
DRB3*0101 = DRB3*0101 (Homo sapiens, UniProt P01903+P79483); assay type: binding
DRB4*0101 = DRB4*0101 (Homo sapiens, UniProt P01903+P13762, G164S); assay type: binding
DRB1*1101 = DRB1*1101 (Homo sapiens, UniProt P01903+P01911, A100R/A169T/A87E/I96F/K41T/L162R/M171V/P40S/Q125H/Q178H/Q39Y/Q99D/R42S/S66Y/T262R/V115G/W38E)
DRB1*1101, sequence (P01903 26-254 limits assumed, other chains not shown): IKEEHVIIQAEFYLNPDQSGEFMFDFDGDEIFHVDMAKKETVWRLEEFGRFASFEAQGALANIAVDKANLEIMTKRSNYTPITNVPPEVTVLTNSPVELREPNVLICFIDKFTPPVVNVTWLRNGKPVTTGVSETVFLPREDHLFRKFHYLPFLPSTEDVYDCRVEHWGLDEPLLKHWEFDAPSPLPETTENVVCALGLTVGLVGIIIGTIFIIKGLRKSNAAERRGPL

DRB5*0101 = DRB5*0101 (Homo sapiens, UniProt P01903+Q30154)
DR4w4 (DRB1*0401) = DR4w4 (DRB1*0401) (Homo sapiens, UniProt P01903+P01911, A100K/A169T/F76Y/I96L/K127E/L162R/M171V/N62H/P40V/Q125Y/R42H/S133A/S149N/S66Y/V115G/V209L/W38E); assay type: binding
DR7 (DRB1*0701) = DR7 (DRB1*0701) (Homo sapiens, UniProt P01903+P01911, A100R/A102G/A103Q/D57E/D86V/E43K/F76Y/K127E/L162R/M171V/P40G/Q125H/Q99D/R33Q/R42Y/R54Q/S133A/S66F/T210M/V115G/Y107V/Y59L/Y89S); assay type: binding
DRB1*0802 = DRB1*0802 (Homo sapiens, UniProt P01903+P01911, A100R/A103L/A169T/F76Y/H45Y/I96F/K41T/L162R/M171V/P40S/Q125H/Q178H/Q39Y/Q99D/R218S/R42G/S66Y/V115G/W38E); assay type: binding
DRB1*0901 = DRB1*0901 (Homo sapiens, UniProt P01903+P01911, A100R/A103E/D57H/D86V/F55Y/F60I/F76Y/I96F/K127E/L162R/M171V/P40D/Q125H/Q99R/R33Q/R42F/S133A/S66N/T210M/V115G/W38K/Y107V/Y59G/Y89S); assay type: binding
DRB1*1201 = DRB1*1201 (Homo sapiens, UniProt P01903+P01911, A100R/A169T/D57E/D86V/F55L/H45Y/K41T/L162R/M171V/P40S/Q125H/Q178H/Q39Y/Q99D/R42G/S66L/T262R/V114A/V67L/W38E/Y59H/Y61H/Y89S); assay type: binding
DR1 (DRB1*0101) = DR1 (DRB1*0101) (Homo sapiens, UniProt P01903+P01911, A100R/D57E/F55L/F60I/F76Y/I96L/L162R/M171V/P40L/Q125E/R42F/V115G/Y59C); assay type: binding
DRB1*0405 = DRB1*0405 (Homo sapiens, UniProt P01903+P01911, A100R/A169T/D86S/F76Y/I96L/K127E/L162R/M171V/N62H/P40V/Q125Y/R42H/S133A/S149N/S66Y/V115G/V209L/W38E); assay type: binding
DRB1*0301 = DRB1*0301 (Homo sapiens, UniProt P01903+P01911, A100K/A102G/A103R/A169T/F55Y/I96L/K41T/L162R/M171V/P40S/Q125H/Q178H/Q39Y/R42S/S66N/T106N/T262R/W38E/Y61H); assay type: binding
DRB1*0301, sequence (P01903 26-254 limits assumed, other chains not shown): as above

DRB1*1302, sequence (P01903 26-254 limits assumed, other chains not shown): as above

Compound | IC50 (DRB1*1302) [µM] | IC50 (DRB1*1501) [µM] | IC50 (DRB3*0101) [µM] | IC50 (DRB4*0101) [µM] | IC50 (DRB1*1101; DRB1*1101) [µM] | IC50 (DRB5*0101; DRB5*0101) [µM] | IC50 (DR4w4 (DRB1*0401)) [µM] | IC50 (DR7 (DRB1*0701)) [µM] | IC50 (DRB1*0802) [µM] | IC50 (DRB1*0901) [µM] | IC50 (DRB1*1101; Binding affinity DRB1 *1101) [µM] | IC50 (DRB5*0101; Binding affinity DRB5 *0101) [µM] | IC50 (DRB1*1201) [µM] | IC50 (DR1 (DRB1*0101)) [µM] | IC50 (DRB1*0405) [µM] | IC50 (DRB1*0301) [µM]
GIVEQTTTSITSLYQ [Peptide 9000.0054] | 0.014 | 0.849 | > 95.2 | 2.3 | > 10.5 | > 37.6 |  |  |  |  |  |  |  |  |  | 
CC[C@H](C)[C@H](NC(=O)[C@H](Cc1c[nH]cn1)NC(=O)[C@H](CCSC)NC(=O)[C@H](CCCCN)NC(=O)[C@@H](NC(=O)[C@H](CCCCN)NC(=O)[C@H](CCC(N)=O)NC(=O)[C@@H](NC(=O)[C@H](CO)NC(=O)[C@H](Cc1ccccc1)NC(=O)[C@H](CC(N)=O)NC(=O)CNC(=O)[C@@H](N)[C@@H](C)O)[C@@H](C)O)C(C)C)C(=O)N[C@@H](Cc1c[nH]cn1)C(=O)N[C@@H](CO)C(=O)O [Peptide 68.0105] |  |  | > 20 |  |  |  |  |  |  |  |  |  |  |  |  | 
CC[C@H](C)[C@H](NC(=O)[C@H](C)NC(=O)[C@H](CCCCN)NC(=O)[C@H](Cc1c[nH]cn1)NC(=O)[C@H](C)NC(=O)[C@H](CCCCN)NC(=O)[C@H](CO)NC(=O)[C@H](CCCCN)NC(=O)[C@H](CO)NC(=O)[C@@H](NC(=O)[C@H](CC(N)=O)NC(=O)[C@@H](NC(=O)[C@@H]1CCCN1)[C@@H](C)CC)[C@@H](C)CC)C(=O)N[C@@H](CCC(=O)O)C(=O)N[C@@H](CC(C)C)C(=O)O [Peptide 1601.30] |  |  | > 20 |  |  |  |  |  |  |  |  |  |  |  |  | 
NMSLLKHQSLRPDED [Peptide 68.0009] | > 20 | > 20 | > 20 |  |  |  | > 20 | > 20 | > 20 | > 20 | > 20 | > 20 |  |  |  | 
CC(C)C[C@H](NC(=O)[C@H](CCC(=O)O)NC(=O)[C@H](CCCCN)NC(=O)[C@H](C)NC(=O)[C@H](CC(C)C)NC(=O)[C@@H](NC(=O)[C@H](CO)NC(=O)[C@H](CCCNC(=N)N)NC(=O)[C@@H](N)CC(=O)O)C(C)C)C(=O)N[C@@H](CCCCN)C(=O)N[C@@H](Cc1ccccc1)C(=O)N[C@H](C(=O)N[C@H](C(=O)N[C@@H](CC(C)C)C(=O)N[C@H](C(=O)O)C(C)C)[C@@H](C)O)C(C)C [Peptide 68.0024] |  |  | > 20 |  |  |  |  |  |  |  | > 20 |  | 0.301 |  |  | 
RVPVSHSFPHPLYNM [Peptide 68.0006] |  |  | > 20 |  |  |  | > 20 |  | > 20 |  | > 20 |  |  |  |  | 
HPLYNMSLLKHQSLR [Peptide 68.0008] |  |  | > 20 |  |  |  |  |  |  |  |  |  | 0.095 |  |  | 
ADKIYSISMKHPQEM [Peptide 68.0125] |  |  | > 20 |  |  |  |  |  |  |  |  | > 20 | 9.25 | > 20 |  | 
EISFAGIVTKLPTAN [Peptide 89.0174] |  | 8.14 | 0.07 | > 20 |  |  |  | 7.8 | 11.3 | > 20 | > 20 |  |  | 18.7 | > 20 | 
CC[C@H](C)[C@H](NC(=O)CNC(=O)[C@H](Cc1ccc(O)cc1)NC(=O)[C@H](CC(C)C)NC(=O)[C@H](CO)NC(=O)[C@H](CC(C)C)NC(=O)[C@H](CC(C)C)NC(=O)[C@H](CO)NC(=O)[C@H](CC(C)C)NC(=O)[C@H](CCC(=O)O)NC(=O)[C@H](CO)NC(=O)[C@H](CC(C)C)NC(=O)[C@H](CCC(=O)O)NC(=O)[C@H](CCCNC(=N)N)NC(=O)[C@@H](N)CC(C)C)C(=O)O [Peptide 68.0043] |  |  | > 20 |  |  |  |  |  |  |  |  |  |  |  |  | 
YIVMSDWTGGA [Peptide 510.33] |  |  | > 33.3 |  | > 6.67 | > 10 |  |  |  |  |  |  |  |  |  | 
GEIYIIEEDTCTMVT [Peptide 90.0202] | 0.426 | > 20 |  | 0.322 |  |  | 0.148 | 6.6 | > 20 | > 20 | > 20 | > 20 | > 20 | 1.6 | 8.11 | 0.055
LETIYNSQYSNEKWT [Peptide 1601.03] | 6.8 | 0.563 | > 20 |  |  |  | 0.099 | > 20 | > 20 | 6.1 | > 20 | 0.208 |  | 8.61 | 3 | 
CC[C@H](C)[C@H](NC(=O)CNC(=O)[C@H](CCC(N)=O)NC(=O)[C@H](CC(C)C)NC(=O)[C@@H](NC(=O)CNC(=O)[C@H](CC(N)=O)NC(=O)[C@H](CS)NC(=O)[C@@H](NC(=O)[C@H](CC(C)C)NC(=O)[C@@H]1CCCN1C(=O)CNC(=O)CN)C(C)C)C(C)C)C(=O)N[C@H](C(=O)N[C@@H](CO)C(=O)O)[C@@H](C)O [Peptide 68.0079] |  | > 20 | > 20 |  |  |  |  | > 20 |  |  |  |  |  |  |  | 
CC[C@H](C)[C@H](NC(=O)[C@@H](NC(=O)[C@@H]1CCCN1C(=O)CNC(=O)[C@@H](NC(=O)[C@H](CC(C)C)NC(=O)[C@H](CCC(=O)O)NC(=O)[C@H](C)NC(=O)[C@@H](N)Cc1ccccc1)C(C)C)C(C)C)C(=O)N1CCC[C@H]1C(=O)N[C@@H](CCC(N)=O)C(=O)N[C@@H](CC(=O)O)C(=O)N[C@@H](Cc1c[nH]c2ccccc12)C(=O)N[C@@H](CO)C(=O)N[C@H](C(=O)O)[C@@H](C)O [Peptide 68.0056] | > 20 | > 20 | > 20 |  |  |  |  | > 20 | > 20 | > 20 | > 20 | > 20 |  |  |  | 
ETCMVIEPPKLRSQT [Peptide 90.0083] | > 20 | 0.67 |  | 0.016 |  |  | 1.55 | 0.794 | 4.3 | > 20 | 4.74 | 0.124 | 0.825 | 0.026 | 2.28 | 0.275
DYVLDLQPEATDLHC [Peptide 1543.10] | > 20 | > 20 |  | 0.069 |  |  | 0.035 | > 20 | > 20 | > 20 | > 20 | > 20 | 4.88 | 5.05 | 0.678 | 11
LDHYENDSKDINSQI [Peptide 1601.29] | > 20 | > 20 | 2.05 | 0.554 |  |  | > 20 | 19.9 | > 20 | > 20 | > 20 | > 20 |  | > 20 | > 20 | 
CQAIELQLALEALNK [Peptide 90.0014] | 0.214 | 0.2 |  | 0.014 |  |  | 0.45 | > 20 | 3.59 | 1.78 | 3.23 | 1.91 | 1.1 | 0.025 | 1.52 | 0.466
CC(C)C[C@H](NC(=O)[C@H](CC(=O)O)NC(=O)[C@H](CCCCN)NC(=O)[C@H](Cc1ccccc1)NC(=O)[C@H](C)NC(=O)[C@H](Cc1ccccc1)NC(=O)[C@H](CCC(=O)O)NC(=O)[C@H](Cc1ccccc1)NC(=O)[C@@H](NC(=O)[C@@H](N)CCC(=O)O)C(C)C)C(=O)N[C@@H](Cc1ccccc1)C(=O)N[C@H](C(=O)N[C@H](C(=O)N[C@@H](Cc1ccc(O)cc1)C(=O)N[C@@H](CCCNC(=N)N)C(=O)O)C(C)C)C(C)C [Peptide 1543.35] |  |  | > 20 |  |  |  |  |  |  | > 20 |  | > 20 |  |  |  | 
